Marks after values point to notes of the source that are not given here.
Assays:
[1] = system: fairway height, creeping bentgrass; experiment: Injury rating of fairway height creeping bentgrass after fertilization (Example 6); format: in vivo; conditions: about two weeks after application
Procedure: In this Example, the efficacy of fertilizers on fairway height, creeping bentgrass was examined. Fertilizer compositions according to several embodiments of the present disclosure were prepared and compared to the commercial fertilizer products, urea 46-0-0 (granular) fertilizer, Lebanon fertilizer 21-0-12 (granular, commercially available from Lebanon Seaboard Corporation, Lebanon, Pa.) and Milorganite 6-2-0 (granular, commercially available from Milorganite, Milwaukee, Wis.). The fertilizer compositions were applied to turf prior to winter dormancy at a rate equivalent to supplying about 1.0 pounds of nitrogen (N) per 1000 square feet. Each of the fertilizer compositions were applied at substantially equal rates of lbs of nitrogen (N) per 1000 square feet. Table 3 illustrates the response of fairway height, creeping bentgrass to fertilization using various exemplary fertilizers of the present invention, taken about two weeks after application of the fertilizer. The letters in the Color and Injury columns correspond to Duncan's Multiple Range Test. Numbers (means) in a column followed by the same letter are not statistically different at P=0.05.

Bermuda grass [2] = experiment: Phytotoxicity rating, Bermuda grass fairway (Example 10); format: in vivo; conditions: scale 0-5, 5=worst
Source text: In this Example, the effect of a fertilizer comprising lysine on warm season turfgrass growth was examined. The effects of lysine (HCl) and LIQUID LYSINE on a common type of golf course fairway quality turfgrass (Bermuda grass) were compared with those of urea and Milorganite.
Fifteen fertilizer treatments comprising three concentrations of each fertilizer composition (Milorganite (N—P—K, 6-2-0), urea (N—P—K, 46-0-0), LIQUID LYSINE (N—P—K, 10-2-1), and both granular and aqueous lysine (HCl) (N—P—K, 15-2-1)) were prepared and applied to 4 replications of Bermuda grass. The aqueous lysine (HCl) was dissolved in water prior to application. Each fertilizer treatment was applied in concentrations of 0.5 lb N/1000 ft^2/month, 1.0 lb N/1000 ft^2/month and 3.0 lb N/1000 ft^2/month. The urea, LIQUID LYSINE and aqueous lysine (HCl) were applied as foliar liquids, while Milorganite and granular lysine (HCl) were applied as granular fertilizers Plot size was 1 m×2 m set up as a randomized complete block. Plots were mowed at 0.5 inches before fertilizer application. Irrigation (0.15 inch) was applied following application. Plots were rated for turfgrass quality and color (scale of 1-10 where 10=dark green turf, 1=dead/brown turf, and 6=minimally acceptable turf) and phytotoxicity (scale of 0-5, where 5=worst, and 2=minimally objectionable) throughout the study period. Quality, color, and phytotoxicity were measured on 2 days before application (day −2) and day 2, day 5, day 15 and day 21 after application. All data was subject to statistical analysis and significant means were determined. Average turfgrass quality ratings for the treatments are presented in Table 9 and the quality results for application rates of 1.0 lb N/1000 ft^2/month are graphically presented in FIG. 4.

Bermuda grass [3] = experiment: Phytotoxicity (% burn), Bermuda grass golf course fairways (Example 13); format: in vivo
Procedure: (§1) In this Example, the effect of a fertilizer comprising lysine on turfgrass growth was examined. The effects of lysine (HCl) and LIQUID LYSINE on a common type of golf course fairway quality turfgrass (Bermuda green) were compared with those of CoRoN® brand fertilizer.
(§2) Six fertilizer treatments comprising two concentrations of each fertilizer composition (Coron® (N—P—K, 14-2-14), LIQUID LYSINE (N—P—K, 10-2-1), and lysine (HCl) (N—P—K, 15-2-1)) were prepared and applied to 3 replications of Bermuda grass for use on golf course fairways. The lysine (HCl) was applied as a granular using a Scotts 2 foot drop spreader on a setting of 4.5. The solutions of LIQUID LYSINE and Coran were applied using a Birchmeier backpack sprayer with a 5 foot spray pattern. Each fertilizer treatment was applied in concentrations 3.0 lb N/1000 ft^2 and 6.0 lb N/1000 ft^2. Plot size was 5 ft×60 ft set up as a randomized complete block. Irrigation was applied following application, Plots were rated for turfgrass quality and color (scale of 1-10 where 10=dark green turf 1=dead/brown turf and 6=minimally acceptable turf) and phytotoxicity (% burn) throughout the study period and compared with two untreated plots. […] All data was subject to statistical analysis and significant means were determined.

Bermuda grass [4] = experiment: Turfgrass quality and color ratings, Bermuda grass golf course fairways (Example 13); format: in vivo; conditions: scale 1-10
Procedure: as §1, §2

[5] = Solubility of L-lysine (HCl) in water; format: physicochemical; conditions: at 25° C., read-out: solubility in H2O
[6] = Rate 3.0 lb N/1000 ft^2, Day 12
[7] = Rate 3.0 lb N/1000 ft^2, Day 19
[8] = Rate 3.0 lb N/1000 ft^2, Day 26
[9] = Rate 3.0 lb N/1000 ft^2, Day 33
[10] = Rate 3.0 lb N/1000 ft^2, Day 40
[11] = Rate 3.0 lb N/1000 ft^2, Day 47
[12] = Rate 6.0 lb N/1000 ft^2, Day 12
[13] = Rate 6.0 lb N/1000 ft^2, Day 19
[14] = Rate 6.0 lb N/1000 ft^2, Day 26
[15] = Rate 6.0 lb N/1000 ft^2, Day 33
[16] = Rate 6.0 lb N/1000 ft^2, Day 40
[17] = Rate 6.0 lb N/1000 ft^2, Day 47

**Q.** What does the source list for NC(N)=O [Urea, urea, reference compound]?
**A.** Injury 1-9 (9 = no injury) ([1]; 1.09 Lbs. product/1000 square feet): 8.7^a,b; Injury 1-9 (9 = no injury) ([1]; 2.17 Lbs. product/1000 square feet): 7.7^a,b; Injury 1-9 (9 = no injury) ([1]; 6.51 Lbs. product/1000 square feet): 8.7^a,b; Phytotoxicity - Bermuda Grass (Bermuda grass [2]; Monthly Rate 0.5 lbs N/1000 ft^2, Day 2): 0.0b; Phytotoxicity - Bermuda Grass (Bermuda grass [2]; Monthly Rate 0.5 lbs N/1000 ft^2, Day 5): 0; Phytotoxicity - Bermuda Grass (Bermuda grass [2]; Monthly Rate 0.5 lbs N/1000 ft^2, Day 15): 0; Phytotoxicity - Bermuda Grass (Bermuda grass [2]; Monthly Rate 0.5 lbs N/1000 ft^2, Day 21): 0; Phytotoxicity - Bermuda Grass (Bermuda grass [2]; Monthly Rate 0.5 lbs N/1000 ft^2, Day −2 (before application)): 0; Phytotoxicity - Bermuda Grass (Bermuda grass [2]; Monthly Rate 1.0 lbs N/1000 ft^2, Day 2): 0.0b; Phytotoxicity - Bermuda Grass (Bermuda grass [2]; Monthly Rate 1.0 lbs N/1000 ft^2, Day 5): 0; Phytotoxicity - Bermuda Grass (Bermuda grass [2]; Monthly Rate 1.0 lbs N/1000 ft^2, Day 15): 0; Phytotoxicity - Bermuda Grass (Bermuda grass [2]; Monthly Rate 1.0 lbs N/1000 ft^2, Day 21): 0; Phytotoxicity - Bermuda Grass (Bermuda grass [2]; Monthly Rate 1.0 lbs N/1000 ft^2, Day −2 (before application)): 0; Phytotoxicity - Bermuda Grass (Bermuda grass [2]; Monthly Rate 3.0 lbs N/1000 ft^2, Day 2): 0.0b; Phytotoxicity - Bermuda Grass (Bermuda grass [2]; Monthly Rate 3.0 lbs N/1000 ft^2, Day 5): 0; Phytotoxicity - Bermuda Grass (Bermuda grass [2]; Monthly Rate 3.0 lbs N/1000 ft^2, Day 15): 0; Phytotoxicity - Bermuda Grass (Bermuda grass [2]; Monthly Rate 3.0 lbs N/1000 ft^2, Day 21): 0; Phytotoxicity - Bermuda Grass (Bermuda grass [2]; Monthly Rate 3.0 lbs N/1000 ft^2, Day −2 (before application)): 0

**Q.** Which results are given for Cl.NCCCC[C@H](N)C(=O)O [Lys (HCl) 15% N, L-lysine monohydrochloride]?
**A.** Phytotoxicity (% Burn) - Bermuda grass (Bermuda grass [3]; 3.0 lb N/1000 ft^2, Day 7): 11.7bc %; Phytotoxicity (% Burn) - Bermuda grass (Bermuda grass [3]; 3.0 lb N/1000 ft^2, Day 12): 6.7b %; Phytotoxicity (% Burn) - Bermuda grass (Bermuda grass [3]; 3.0 lb N/1000 ft^2, Day 19): 1.7bc %; Phytotoxicity (% Burn) - Bermuda grass (Bermuda grass [3]; 3.0 lb N/1000 ft^2, Day 26): 0.0b %; Phytotoxicity (% Burn) - Bermuda grass (Bermuda grass [3]; 3.0 lb N/1000 ft^2, Day 33): 0.0a %; Phytotoxicity (% Burn) - Bermuda grass (Bermuda grass [3]; 3.0 lb N/1000 ft^2, Day 40): 0.0c %; Phytotoxicity (% Burn) - Bermuda grass (Bermuda grass [3]; 3.0 lb N/1000 ft^2, Day 47): 0.0c %; Phytotoxicity (% Burn) - Bermuda grass (Bermuda grass [3]; 6.0 lb N/1000 ft^2, Day 7): 21.7a %; Phytotoxicity (% Burn) - Bermuda grass (Bermuda grass [3]; 6.0 lb N/1000 ft^2, Day 12): 11.7a %; Phytotoxicity (% Burn) - Bermuda grass (Bermuda grass [3]; 6.0 lb N/1000 ft^2, Day 19): 5.0b %; Phytotoxicity (% Burn) - Bermuda grass (Bermuda grass [3]; 6.0 lb N/1000 ft^2, Day 26): 0.0b %; Phytotoxicity (% Burn) - Bermuda grass (Bermuda grass [3]; 6.0 lb N/1000 ft^2, Day 33): 0.0a %; Phytotoxicity (% Burn) - Bermuda grass (Bermuda grass [3]; 6.0 lb N/1000 ft^2, Day 40): 0.0c %; Phytotoxicity (% Burn) - Bermuda grass (Bermuda grass [3]; 6.0 lb N/1000 ft^2, Day 47): 0.0c %; Color Ratings - Bermuda Grass (Bermuda grass [4]; Rate 3.0 lb N/1000 ft^2, Day 7): 5.7ab; Quality Ratings - Bermuda Grass (Bermuda grass [4]; Rate 3.0 lb N/1000 ft^2, Day 7): 6.7a; Color Ratings - Bermuda Grass (Bermuda grass [4]; [6]): 6.0b; Quality Ratings - Bermuda Grass (Bermuda grass [4]; [6]): 7.3ab; Color Ratings - Bermuda Grass (Bermuda grass [4]; [7]): 6.7a; Quality Ratings - Bermuda Grass (Bermuda grass [4]; [7]): 7.3ab; Color Ratings - Bermuda Grass (Bermuda grass [4]; [8]): 7.3a; Quality Ratings - Bermuda Grass (Bermuda grass [4]; [8]): 7.7ab; Color Ratings - Bermuda Grass (Bermuda grass [4]; [9]): 7.7ab; Quality Ratings - Bermuda Grass (Bermuda grass [4]; [9]): 8.0a; Color Ratings - Bermuda Grass (Bermuda grass [4]; [10]): 7.0b; Quality Ratings - Bermuda Grass (Bermuda grass [4]; [10]): 7.0b; Color Ratings - Bermuda Grass (Bermuda grass [4]; [11]): 7.0bc; Quality Ratings - Bermuda Grass (Bermuda grass [4]; [11]): 7.3ab; Color Ratings - Bermuda Grass (Bermuda grass [4]; Rate 6.0 lb N/1000 ft^2, Day 7): 5.3ab; Quality Ratings - Bermuda Grass (Bermuda grass [4]; Rate 6.0 lb N/1000 ft^2, Day 7): 6.7a; Color Ratings - Bermuda Grass (Bermuda grass [4]; [12]): 6.7a; Quality Ratings - Bermuda Grass (Bermuda grass [4]; [12]): 7.3ab; Color Ratings - Bermuda Grass (Bermuda grass [4]; [13]): 7.0a; Quality Ratings - Bermuda Grass (Bermuda grass [4]; [13]): 7.3ab; Color Ratings - Bermuda Grass (Bermuda grass [4]; [14]): 7.7a; Quality Ratings - Bermuda Grass (Bermuda grass [4]; [14]): 7.7ab; Color Ratings - Bermuda Grass (Bermuda grass [4]; [15]): 7.7ab; Quality Ratings - Bermuda Grass (Bermuda grass [4]; [15]): 7.7a; Color Ratings - Bermuda Grass (Bermuda grass [4]; [16]): 7.3ab; Quality Ratings - Bermuda Grass (Bermuda grass [4]; [16]): 7.0b; Color Ratings - Bermuda Grass (Bermuda grass [4]; [17]): 7.3ab; Quality Ratings - Bermuda Grass (Bermuda grass [4]; [17]): 7.7a; solubility [5]: 500 to 600 mg/mL

Source: patent publication US7811352B2, “Fertilizer compositions and methods of using” (priority 2005, dated 2010)
